From PubChem BioAssay AID330 (DTP/NCI, 2004)
Where “and” joins values, the source holds several entries; their conditions need not be identical. Identical values can stand only once. Toxic doses and inconclusive results are not listed. The calls were made as follows: active = survival T/C of 150% or more; inactive = T/C below 125% in these data.

Tested on: P388 leukemia ip, CD2F1 mice, survival T/C
Experiment: NCI In Vivo Anticancer Drug Screen. Data for tumor model P388 Leukemia (intraperitoneal) in CD2F1 (CDF1) mice
Settings: endpoint: median survival time, higher = longer survival
How it was run: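 Mice carrying the transplanted tumor received test compound or vehicle. Survival was recorded in each group, and the value is the treated-group measurement divided by that of the vehicle-treated control group.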

[1] = dose: 100.0 mg/kg/injection, schedule: Q01DX009 (ip), vehicle: saline with Tween-80
[2] = dose: 200.0 mg/kg/injection, schedule: Q01DX009 (ip), vehicle: saline with Tween-80
[3] = dose: 100.0 mg/kg/injection, schedule: Q01DX001 (ip), vehicle: saline with Tween-80
[4] = dose: 200.0 mg/kg/injection, schedule: Q01DX001 (ip), vehicle: saline with Tween-80
[5] = dose: 400.0 mg/kg/injection, schedule: Q01DX001 (ip), vehicle: saline with Tween-80
[6] = dose: 12.5 mg/kg/injection, schedule: Q04DX003 (ip), vehicle: saline with Tween-80
[7] = dose: 60.0 mg/kg/injection, schedule: Q01DX005 (ip), vehicle: Klucel (hydroxypropylcellulose) (HPC)
[8] = dose: 120.0 mg/kg/injection, schedule: Q01DX005 (ip), vehicle: Klucel (hydroxypropylcellulose) (HPC)
[9] = dose: 50.0 mg/kg/injection, schedule: Q01DX009 (ip), vehicle: saline
[10] = dose: 100.0 mg/kg/injection, schedule: Q01DX009 (ip), vehicle: saline
[11] = dose: 200.0 mg/kg/injection, schedule: Q01DX009 (ip), vehicle: saline

Measured: T/C

O=C1/C(=C/c2ccccc2)Cc2ccccc21
inactive: [1] 100 % of control | [2] 100 % of control | dose: 400.0 mg/kg/injection, schedule: Q01DX009 (ip), vehicle: saline with Tween-80 95 % of control

c1cnc2c(c1)-n1cccc1C1(CCCCC1)NN2
inactive: [3] 108 % of control | [4] 93 % of control | [5] 93 % of control

[NH-]C(CC(N)=O)C(=O)O.[NH-]C(CC(N)=O)C(=O)O.[Pd+2] (stereo not drawn)
inactive: dose: 6.25 mg/kg/injection, schedule: Q04DX003 (ip), vehicle: saline with Tween-80 92 % of control | [6] 96 % of control | dose: 25.0 mg/kg/injection, schedule: Q04DX003 (ip), vehicle: saline with Tween-80 100 % of control | dose: 50.0 mg/kg/injection, schedule: Q04DX003 (ip), vehicle: saline with Tween-80 98 % of control | dose: 100.0 mg/kg/injection, schedule: Q04DX003 (ip), vehicle: saline with Tween-80 107 % of control | dose: 200.0 mg/kg/injection, schedule: Q04DX003 (ip), vehicle: saline with Tween-80 100 % of control

C/C(=N/NC(N)=O)c1cn[nH]c1C
inactive: [7] 117 % of control | [8] 124 % of control

CCCCCCCCCCCC(=O)N(C)CCOC(=O)C(C)(C)C
inactive: [9] 106 % of control | [10] 98 % of control | [11] 116 % of control

O=C(O)c1cc(N2C(=O)c3ccc4c5ccc6c7c(ccc(c8ccc(c3c48)C2=O)c75)C(=O)N(c2ccc(O)c(C(=O)O)c2)C6=O)ccc1O
inactive: [9] 98 % of control | [10] 91 % of control | [11] 90 % of control

NC(=O)NC(=O)C(Cc1ccccc1)c1ccccc1 (stereo not drawn)
inactive: dose: 60.0 mg/kg/injection, schedule: Q01DX005 (ip), vehicle: saline with Tween-80 99 % of control | dose: 120.0 mg/kg/injection, schedule: Q01DX005 (ip), vehicle: saline with Tween-80 95 % of control | dose: 240.0 mg/kg/injection, schedule: Q01DX005 (ip), vehicle: saline with Tween-80 86 % of control

CCC[CH2][Sn]([CH2]CCC)([O]C(=O)/C=C/c1ccccc1)[O]C(=O)/C=C/c1ccccc1
inactive: dose: 1.56 mg/kg/injection, schedule: Q04DX003 (ip), vehicle: DMSO 87 % of control | dose: 3.12 mg/kg/injection, schedule: Q04DX003 (ip), vehicle: DMSO 89 % of control | dose: 6.25 mg/kg/injection, schedule: Q04DX003 (ip), vehicle: DMSO 89 % of control | [6] 117 % of control

CC1=CC(O/C=C2\C(=O)OC3c4ccccc4CC23)OC1=O (stereo not drawn)
inactive: dose: 50.0 mg/kg/injection, schedule: Q01DX009 (ip), vehicle: suspension in saline 101 % of control | dose: 100.0 mg/kg/injection, schedule: Q01DX009 (ip), vehicle: suspension in saline 108 % of control | dose: 200.0 mg/kg/injection, schedule: Q01DX009 (ip), vehicle: suspension in saline 92 % of control

COc1ccc(/C=C/C(C)=N/NC(N)=O)cc1
inactive: dose: 50.0 mg/kg/injection, schedule: Q01DX005 (ip), vehicle: saline with Tween-80 101 % of control | dose: 100.0 mg/kg/injection, schedule: Q01DX005 (ip), vehicle: saline with Tween-80 94 % of control | dose: 200.0 mg/kg/injection, schedule: Q01DX005 (ip), vehicle: saline with Tween-80 96 % of control

CN(C)CCN1C(=O)c2cccc3cc([N+](=O)[O-])cc(c23)C1=O
inactive: dose: 0.78 mg/kg/injection, schedule: Q01DX009 (ip), vehicle: saline with Tween-80 101 % of control | dose: 3.12 mg/kg/injection, schedule: Q01DX009 (ip), vehicle: saline with Tween-80 117 % of control and 124 % of control

COc1ccc(-c2c(C)c(C)nc(Cl)c2C#N)c(OCc2ccccc2)c1OC
inactive: dose: 0.05 mg/kg/injection, schedule: Q01DX009 (ip), vehicle: water 100 % of control | dose: 0.1 mg/kg/injection, schedule: Q01DX009 (ip), vehicle: water 104 % of control | dose: 0.2 mg/kg/injection, schedule: Q01DX009 (ip), vehicle: water 104 % of control | dose: 0.4 mg/kg/injection, schedule: Q01DX009 (ip), vehicle: other 96 % of control | dose: 0.4 mg/kg/injection, schedule: Q01DX009 (ip), vehicle: water 99 % of control | dose: 0.8 mg/kg/injection, schedule: Q01DX009 (ip), vehicle: other 97 % of control | dose: 1.6 mg/kg/injection, schedule: Q01DX009 (ip), vehicle: other 94 % of control | dose: 3.2 mg/kg/injection, schedule: Q01DX009 (ip), vehicle: other 100 % of control | dose: 6.25 mg/kg/injection, schedule: Q01DX009 (ip), vehicle: other 110 % of control | dose: 6.4 mg/kg/injection, schedule: Q01DX009 (ip), vehicle: other 102 % of control | dose: 12.5 mg/kg/injection, schedule: Q01DX009 (ip), vehicle: other 108 % of control | dose: 25.0 mg/kg/injection, schedule: Q01DX009 (ip), vehicle: other 104 % of control | dose: 50.0 mg/kg/injection, schedule: Q01DX009 (ip), vehicle: other 103 % of control | dose: 100.0 mg/kg/injection, schedule: Q01DX009 (ip), vehicle: other 111 % of control | dose: 200.0 mg/kg/injection, schedule: Q01DX009 (ip), vehicle: other 102 % of control | dose: 400.0 mg/kg/injection, schedule: Q01DX009 (ip), vehicle: other 105 % of control

CCC/C(C)=C(/C#N)CC
inactive: dose: 25.0 mg/kg/injection, schedule: Q01DX009 (ip), vehicle: Klucel (hydroxypropylcellulose) (HPC) 101 % of control | dose: 50.0 mg/kg/injection, schedule: Q01DX009 (ip), vehicle: Klucel (hydroxypropylcellulose) (HPC) 101 % of control | dose: 100.0 mg/kg/injection, schedule: Q01DX009 (ip), vehicle: Klucel (hydroxypropylcellulose) (HPC) 101 % of control

CCOC(=O)C(Cc1ccccc1)P(=O)(OCC)OCC (stereo not drawn)
inactive: dose: 100.0 mg/kg/injection, schedule: Q01DX001 (ip), vehicle: saline 95 % of control | dose: 200.0 mg/kg/injection, schedule: Q01DX001 (ip), vehicle: saline 100 % of control | dose: 400.0 mg/kg/injection, schedule: Q01DX001 (ip), vehicle: saline 91 % of control

Cc1cc(N(CCCl)CCCl)ccc1N=Nc1cccc2ccccc12
inactive: dose: 50.0 mg/kg/injection, schedule: Q01DX009 (ip), vehicle: saline with Tween-80 105 % of control | [1] 115 % of control | [2] 123 % of control

CC/C(=N/NS(=O)(=O)c1ccc(C)cc1)c1ccc([N+](=O)[O-])cc1
inactive: dose: 100.0 mg/kg/injection, schedule: Q04DX002 (ip), vehicle: saline 100 % of control | dose: 200.0 mg/kg/injection, schedule: Q04DX002 (ip), vehicle: saline 105 % of control | dose: 400.0 mg/kg/injection, schedule: Q04DX002 (ip), vehicle: saline 100 % of control

Cn1cnc([N+](=O)[O-])c1N1CCN(c2ccccc2)CC1
inactive: [3] 97 % of control | [4] 93 % of control | [5] 94 % of control

CN=NNc1ccc(C)cc1
inactive: dose: 12.5 mg/kg/injection, schedule: Q01DX009 (ip), vehicle: distilled water + Tween-80 96 % of control and 97 % of control | dose: 25.0 mg/kg/injection, schedule: Q01DX009 (ip), vehicle: distilled water + Tween-80 100 % of control | dose: 50.0 mg/kg/injection, schedule: Q01DX009 (ip), vehicle: distilled water + Tween-80 100 % of control and 124 % of control | dose: 100.0 mg/kg/injection, schedule: Q01DX009 (ip), vehicle: distilled water + Tween-80 123 % of control

O=C(NS(=O)(=O)Cl)Oc1ccc(Cl)cc1C(=O)Oc1ccc(Cl)cc1
inactive: [7] 90 % of control | [8] 93 % of control | dose: 240.0 mg/kg/injection, schedule: Q01DX005 (ip), vehicle: Klucel (hydroxypropylcellulose) (HPC) 86 % of control
